In patent US20110098309A1, “METHODS OF INHIBITING THE FORMATION OF AMYLOID-BETA DIFFUSABLE LIGANDS USING ACYLHYDRAZIDE COMPOUNDS” (priority 2007, published 2011):

Target: Aβ1-42 (Homo sapiens, UniProt P05067)
Test: FRET assay of Aβ1-42 oligomer (ADDL) assembly inhibition
Type: biochemical
Details: 0.2 μM FITC-Aβ(1-42) and 0.8 μM Aβ(1-42), 37° C., six concentrations from about 10 μM to about 0.03 μM
Description: Fluorescence (or Förster) Resonance Energy Transfer (FRET) is a distance-dependent, non-radiative transfer of energy in which the de-excitation of one fluorophore (donor) is coupled to excitation of another fluorophore (acceptor). FRET occurs if (1) the quantum of energy emitted by a donor fluorophore corresponds to an acceptor fluorophore's excitation energy, (2) the orientations of donor and acceptor transition dipoles are nearly parallel and (3) the donor fluorescent emission spectrum overlaps the acceptor absorption spectrum.
In this assay, assembly of Aβ1-42 oligomer formation is monitored by FRET using N-terminal conjugates of fluorescein-Aβ1-42 as both the donor and acceptor fluorophore (fluorescein-fluorescein Ro˜45 Å). […] Inhibition of Aβ1-42 assembly is observed as the absence or attenuation of fluorescein quenching.
FRET and FP assays are performed in 384-well Corning Non-Binding Surface, black, opaque microtiter plates, and the assay buffer consists of 25 mM MOPS-Tris (pH 8.0) with 100 mM MgCl2. The assay volume, containing 0.2 μM FITC-Aβ(1-42) and 0.8 μM Aβ(1-42), is 50 μl and the temperature is 37° C. […] Kinetic traces are collected by recording fluorescence intensity and polarization readings every five minutes over about a three hour time course. […] Positive control reactions contain all buffer components in the absence of added small molecule or antibody reagents. To test for ADDL assembly inhibition, the compound was incubated with the peptide mixture at six concentrations from about 10 μM decreasing to about 0.03 μM.

Chain of Aβ1-42 (P05067 672-713 limits assumed): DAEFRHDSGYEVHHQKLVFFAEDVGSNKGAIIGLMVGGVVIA

COc1ccc(/C=N/NC(=O)c2ccccc2O)c(O)c1 [Compound 81, 2-hydroxy-N′-(2-hydroxy-4-methoxy-benzylidene)benzohydrazide] was tested. Which IC50 did it give?
The IC50 was 15 µM.

For COc1ccc(O)c(/C=N/NC(=O)c2cc(OC)ccc2O)c1 [Compound 82, 2-hydroxy-N′-(2-hydroxy-5-methoxy-benzylidene)-5-methoxy-benzohydrazide], which IC50 is on record?
The IC50 was 15.1 µM.

COc1ccc(O)c(/C=N/NC(=O)c2ccccc2O)c1 [Compound 83, 2-hydroxy-N′-(2-hydroxy-5-methoxy-benzylidene)benzohydrazide] was tested. Which IC50 did it give?
The IC50 was 15.4 µM.

For COc1ccc(O)c(/C=N/NC(=O)c2cc(Cl)ccc2O)c1 [Compound 84, 5-chloro-2-hydroxy-N′-(2-hydroxy-5-methoxy-benzylidene)benzohydrazide], which IC50 is on record?
Its IC50 is 15.5 µM.

How did the IC50 turn out when CCOc1ccc(O)c(/C=N/NC(=O)c2ccccc2O)c1 [Compound 85, N′-(5-ethoxy-2-hydroxy-benzylidene)-2-hydroxy-benzohydrazide] was run?
Its IC50 is 16 µM.

Which IC50 does the source give for O=C(N/N=C/c1cccc(O)c1O)c1ccccc1O [Compound 86, N′-(2,3-dihydroxy-benzylidene)-2-hydroxy-benzohydrazide] here?
Its IC50 is 17.4 µM.

With O=C(N/N=C/c1ccc(N2CCOCC2)cc1O)c1ccccc1O [Compound 87, 2-hydroxy-N′-(2-hydroxy-4-morpholino-benzylidene)-benzohydrazide] as the compound, how does the IC50 read?
The IC50 was 18.3 µM.

For O=C(N/N=C/c1oc2ccc([N+](=O)[O-])cc2c1O)c1ccccc1O [Compound 88, 2-hydroxy-N′-((3-hydroxy-5-nitro-benzofuran-2-yl)methylene) benzohydrazide], which IC50 is on record?
The IC50 was 20.4 µM.

Which IC50 does the source give for O=C(N/N=C/c1ccc(O)cc1O)c1ccccc1O [Compound 90, N′-(2,4-dihydroxybenzylidene)-2-hydroxy-benzohydrazide] here?
The IC50 was 21.4 µM.

How did the IC50 turn out when COc1cc(Cl)cc(/C=N/NC(=O)c2ccccc2O)c1O [Compound 91, N′-(5-chloro-2-hydroxy-3-methoxy-benzylidene)-2-hydroxy-benzohydrazide] was run?
The IC50 was 22.8 µM.

For Cc1csc(C(=O)N/N=C/c2cc(Cl)ccc2O)c1Cl [Compound 92, 3-chloro-N′-(5-chloro-2-hydroxybenzylidene)-4-methylthiophene-2-carbohydrazide], which IC50 is on record?
Its IC50 is 23.7 µM.

How did the IC50 turn out when Nc1ccc(Cl)cc1/C=N/NC(=O)c1ccccc1N [Compound 93, 2-amino-N′-(2-amino-5-chlorobenzylidene)benzohydrazide] was run?
The IC50 was 23.9 µM.

COc1cccc(/C=N/NC(=O)c2ccccc2O)c1O [Compound 94, 2-hydroxy-N′-(2-hydroxy-3-methoxybenzylidene)benzohydrazide] was tested. Which IC50 did it give?
Its IC50 is 24.9 µM.

How did the IC50 turn out when COc1ccc(O)c(/C=N/NC(=O)c2c(O)cccc2F)c1 [Compound 95, 2-fluoro-6-hydroxy-N′-(2-hydroxy-5-methoxybenzylidene)benzohydrazide] was run?
Its IC50 is 26.2 µM.

How did the IC50 turn out when Cc1cccc(/C=N/NC(=O)c2ccccc2O)c1O [Compound 96, 2-hydroxy-N′-(2-hydroxy-3-methylbenzylidene)benzohydrazide] was run?
Its IC50 is 28.6 µM.

Which IC50 does the source give for Cc1cc(C(=O)N/N=C/c2c(O)ccc3ccccc23)[nH]n1 [Compound 97, N′-((2-hydroxynaphthalen-1-yl)methylene)-3-methyl-1H-pyrazole-5-carbohydrazide] here?
The IC50 was 30.6 µM.

For COc1ccc(O)c(/C=N/NC(=O)c2cc(Br)ccc2O)c1 [Compound 98, 5-bromo-2-hydroxy-N′-(2-hydroxy-5-methoxybenzylidene)benzohydrazide], which IC50 is on record?
Its IC50 is 31.9 µM.

Which IC50 does the source give for O=C(N/N=C/c1cc([N+](=O)[O-])ccc1O)c1ccccc1O [Compound 99, 2-hydroxy-N′-(2-hydroxy-5-nitrobenzylidene)benzohydrazide] here?
Its IC50 is 32.5 µM.

COc1ccc(O)c(/C=N/NC(=O)c2ccccc2NS(C)(=O)=O)c1 [Compound 100, N-(2-(2-(2-hydroxy-5-methoxybenzylidene)hydrazinecarbonyl)phenyl)methanesulfonamide] was tested. Which IC50 did it give?
Its IC50 is 33.2 µM.

O=C(N/N=C/c1cc(F)cc(F)c1O)c1ccccc1O [Compound 101, N′-(3,5-difluoro-2-hydroxybenzylidene)-2-hydroxybenzohydrazide] was tested. Which IC50 did it give?
Its IC50 is 33.4 µM.

How did the IC50 turn out when O=C(N/N=C(/c1cc(Cl)ccc1O)C(F)(F)F)c1ccccc1O [Compound 102, N′-(1-(5-chloro-2-hydroxyphenyl)-2,2,2-trifluoroethylidene)-2-hydroxybenzohydrazide] was run?
Its IC50 is 34 µM.

How did the IC50 turn out when O=C(N/N=C/c1c(O)ccc2ccccc12)c1cc(C2CC2)n[nH]1 [Compound 103, 3-cyclopropyl-N′-((2-hydroxynaphthalen-1-yl)methylene)-1H-pyrazole-5-carbohydrazide] was run?
The IC50 was 34.5 µM.

Which IC50 does the source give for COc1ccc(O)c(/C=N/NC(=O)c2cc([N+](=O)[O-])ccc2O)c1 [Compound 104, 2-hydroxy-N′-(2-hydroxy-5-methoxybenzylidene)-5-nitrobenzohydrazide] here?
Its IC50 is 35.1 µM.

COc1ccc(O)c(/C=N/NC(=O)c2cccc3cccc(O)c23)c1 [Compound 105, 8-hydroxy-N′-(2-hydroxy-5-methoxybenzylidene)-1-naphthohydrazide] was tested. Which IC50 did it give?
Its IC50 is 36.5 µM.

Which IC50 does the source give for CCOc1cccc(/C=N/NC(=O)c2ccccc2O)c1O [Compound 106, N′-(3-ethoxy-2-hydroxybenzylidene)-2-hydroxybenzohydrazide] here?
Its IC50 is 39.2 µM.

Which IC50 does the source give for COc1ccc(O)c(/C=N/NC(=O)c2cc(-c3ccc(Cl)s3)n[nH]2)c1 [Compound 107, 3-(5-chlorothiophen-2-yl)-N′-(2-hydroxy-5-methoxybenzylidene)-1H-pyrazole-5-carbohydrazide] here?
Its IC50 is 40.1 µM.

Which IC50 does the source give for O=C(N/N=C/c1cc(Cl)cc(Br)c1O)c1ccccc1O [Compound 108, N′-(3-bromo-5-chloro-2-hydroxybenzylidene)-2-hydroxybenzohydrazide] here?
The IC50 was 41.7 µM.

For COc1cc(Br)c(O)c(/C=N/NC(=O)c2ccccc2O)c1 [Compound 109, N′-(3-bromo-2-hydroxy-5-methoxybenzylidene)-2-hydroxybenzohydrazide], which IC50 is on record?
Its IC50 is 42 µM.

For COc1ccc(O)c(/C=N/NC(=O)c2ccccc2N)c1 [Compound 110, 2-amino-N′-(2-hydroxy-5-methoxybenzylidene)benzohydrazide], which IC50 is on record?
Its IC50 is 42.3 µM.

How did the IC50 turn out when Cc1nnsc1C(=O)N/N=C/c1cc(Cl)ccc1O [Compound 111, N′-(5-chloro-2-hydroxybenzylidene)-4-methyl-1,2,3-thiadiazole-5-carbohydrazide] was run?
Its IC50 is 42.9 µM.

C/C(=N\NC(=O)c1cc(C)n[nH]1)c1ccccc1O [Compound 112, N′-(1-(2-hydroxyphenyl)ethylidene)-3-methyl-1H-pyrazole-5-carbohydrazide] was tested. Which IC50 did it give?
The IC50 was 45.4 µM.

Which IC50 does the source give for O=C(N/N=C/c1cc(Cl)ccc1NS(=O)(=O)c1ccc(F)cc1F)c1ccccc1O [Compound 114, N-(4-chloro-2-((2-(2-hydroxybenzoyl)hydrazono)methyl)phenyl)-2,4-difluorobenzenesulfonamide] here?
The IC50 was 46.7 µM.

Which IC50 does the source give for O=C(N/N=C/c1c(O)ccc2ccccc12)c1ccc(O)cc1O [Compound 115, 2,4-dihydroxy-N′-((2-hydroxynaphthalen-1-yl)methylene)benzohydrazide] here?
The IC50 was 47.6 µM.

Which IC50 does the source give for Cc1ccc(/C=N/NC(=O)c2ccc3c(c2)OCO3)c(O)c1 [Compound 116, N′-(2-hydroxy-4-methylbenzylidene)benzo[d][1,3]dioxole-5-carbohydrazide] here?
The IC50 was 50 µM.
